Measured values from paper PMC12052742, “Engineering a newly identified alcohol dehydrogenase from Sphingobium Sp. for efficient utilization of nicotinamide cofactors biomimetics” (Bioresources and Bioprocessing, 2025).

Key:
SpADH2 WT = SpADH2 WT (Sphingobium sp. SYK-6, UniProt G2IIZ8); test: Cofactor kinetic assay, WT; assay type: biochemical
Protocol: (§1) Specific activity of SpADH2 in substrate spectrum study was measured spectrophotometrically. PBS (pH 7.5) buffer was pre-heated at 30°C for 15 min. For NAD^+, 0.05 µg SpADH2 was added to the PBS buffer (100 µL), and a final concentration of 2 mM NAD^+ was added. For tsNCBs cofactor p-BANA^+, 5 µg SpADH2 and a final concentration of 7.5 mM p-BANA^+ was added. The mixture was carried out in a 96-well microplate, and a final concentration of 5 mM substrate was added to start the reaction. The microplate was incubated in 30°C for 1 h. Florescent probes (2-[2-(1,4-dihydro-1-methyl-3-quinolinyl)ethenyl]-1,3,3-trimethyl-3H-indolium) in a final concentration of 0.2 mM (100 µL) was added (Scheme S1), and the microplate was placed in a microplate reader immediately for measurement under 537 nm (Fomin et al. [2016]).
(§2) Kinetic analysis of SpADH2 and its variants were carried out following Michaelis-Menten equation or Michaelis-Menten excess substrate inhibition equation. For of the substrate kinetic assays, concentrations of cofactors were fixed at 5 mM for NAD^+ and 7.5 mM for p-BANA^+. For cofactor kinetic assays, the concentration of 1a was fixed at 5 mM.
(§3) Specific activity was determined spectrophotometrically as above except that gradient 1a (0−20 mM) or cofactor (0−35 mM) concentrations were applied.
(§4) Cofactor specificity ratio (CSR) represents the ratio of catalytic efficiency of p-BANA^+ to NAD^+ for each enzyme, and relative specificity (RS) stands for the CSR ratio of variants to WT (King et al. [2020]).

[1] = tested on: SpADH2 variant H43L/A290I; test: Activity of variant in oxidation of syringyl alcohol with p-BANA^+ (Fig. 5), H43L/A290I; assay type: biochemical, Sphingobium sp. SYK-6; conditions: cofactor p-BANA^+
Protocol: (§5) In the first round of screening, saturation mutagenesis was constructed for six positions (W114, T177, G172, G316, A47, and R227). […] Therefore, in the second round of mutagenesis, six additional sites within the 5 Å range of the cofactor ribose (H43, V202, T265, V288, G289, and A290) were selected for saturation mutagenesis screening (Fig. 6c and Fig. S6). Three beneficial mutations were identified. […] Subsequently, combinatorial mutagenesis was performed, resulting in 11 double variants and 3 triple variants.
(§6) Fig. 5 Relative activity of SpADH2 and its variants in oxidation of syringyl alcohol when utilizing p-BANA^+ as cofactor
(§7) In preliminary screening by spectrophotometric analysis, PBS (pH 7.5) buffer (50 µL) in a 96-well plate was pre-warmed at 30°C for 15 min, and a final concentration of 5 mM p-BANA^+ and 1 mM substrate syringyl alcohol were added, and 50 µL of crude enzyme were add to each well to start the reaction, with WT as control. The reaction mixture was incubated at 30°C for 1 h, followed by addition of fluorescent probes in a final concentration of 0.2 mM, and was subjected to determination under 537 nm as described above.

SpADH2 variant H43L [2] = test: Activity of variant in oxidation of syringyl alcohol with p-BANA^+ (Fig. 5), H43L; assay type: biochemical, Sphingobium sp. SYK-6; conditions: cofactor p-BANA^+, substrate syringyl alcohol
Protocol: as §5, §6, §7

SpADH2 variant A290I = test: Activity of variant in oxidation of syringyl alcohol with p-BANA^+ (Fig. 5), A290I; assay type: biochemical, Sphingobium sp. SYK-6; conditions: cofactor p-BANA^+, substrate syringyl alcohol
Protocol: as §5, §6, §7

SpADH2 variant H43L [3] = test: Substrate kinetic assay, H43L; assay type: biochemical, Sphingobium sp. SYK-6
Protocol: as §1, §2, §3, §4

[4] = tested on: SpADH2 variant H43L/A290I; test: Substrate kinetic assay, H43L/A290I; assay type: biochemical, Sphingobium sp. SYK-6
Protocol: as §1, §2, §3, §4

SpADH2 = test: Preliminary evaluation of NCB usage in oxidation of syringyl alcohol (HPLC); assay type: biochemical, Sphingobium sp. SYK-6; conditions: preliminary assay: 1a 1 mM, NCB 10 mM, pH 7.0, 30℃, 0.1 mg/mL enzyme, 1 h
Protocol: Sphingobium sp. SYK-6 belongs to genus Sphingomonas, and a search in UniProtKB identified 19 ADHs from this strain, including 5 PQQ-dependent and the remaining NAD^+/NADP^+-dependent enzymes. Two sequences annotated as aryl-alcohol dehydrogenases (SLG_34580 and SLG_24930) (Table. S1) were selected for heterologous expression (Fig. S1) and named SpADH1 and SpADH2, respectively. Their ability to utilize NCBs was assessed by oxidation of syringyl alcohol (1a) to produce syringaldehyde (1b) (Fig. 1a).
Fig. 1 (a) Reaction scheme of SpADH2-catalyzed oxidation of syringyl alcohol. (b) Specific activity of SpADH2 toward four NCBs. The evaluation of NCBs usage by SpADH2 was carried out under following conditions: 50 mM PBS buffer (pH 7.0) and 30℃, with 1a (1 mM) as substrate and 4 typical NCBs (10 mM) as cofactor. A total of 0.1 mg/mL enzyme was added to a 200 µL reaction mixture, and was analyzed by HPLC after 1 h reaction
Reaction samples were analyzed using Agilent 1260 Infinity II LC system under reversed phase condition. Column: Agilent C18 column. Analytical conditions for 1a and 1b: mobile phase: 50% water: 50% acetonitrile. The retention time for standard product 1b was 3.27 min, under flow rate of 1 mL·min^− 1and temperature of 30°C (Fig. S4).

SpADH2 variant H43L [5] = test: Cofactor kinetic assay, H43L; assay type: biochemical, Sphingobium sp. SYK-6
Protocol: as §1, §2, §3, §4

[6] = cofactor (= label) varied, 1a fixed at 5 mM
[7] = cofactor (= label) varied, 1a fixed at 5 mM, read-out: Ki (cofactor inhibition)
[8] = 1a varied, cofactor (= label) fixed: 5 mM NAD^+ or 7.5 mM p-BANA^+
[9] = substrate kinetics, cofactor = label

SpADH2 WT, sequence (G2IIZ8 1-372): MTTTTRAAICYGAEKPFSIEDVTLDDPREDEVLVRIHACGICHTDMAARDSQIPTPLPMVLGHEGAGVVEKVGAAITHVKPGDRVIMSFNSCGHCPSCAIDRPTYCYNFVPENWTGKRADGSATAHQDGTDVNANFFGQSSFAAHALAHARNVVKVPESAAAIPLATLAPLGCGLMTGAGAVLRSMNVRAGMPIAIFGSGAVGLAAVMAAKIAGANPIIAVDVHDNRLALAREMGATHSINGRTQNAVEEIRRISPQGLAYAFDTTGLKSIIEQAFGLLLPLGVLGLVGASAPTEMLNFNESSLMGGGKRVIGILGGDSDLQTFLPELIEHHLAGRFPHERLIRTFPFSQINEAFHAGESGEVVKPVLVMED

NC(=O)c1ccc[n+](Cc2ccc(C(=O)O)cc2)c1 [p-BANA^+, para-3-carbamoyl-1-(4-carboxybenzyl)pyridin-1-ium]
kcat (SpADH2 WT; [6]): 1.6 ± 0.5 min^− 1
Ki (SpADH2 WT; [7]): 12 ± 4.7 mM
Cofactor specificity ratio (catalytic efficiency of p-BANA^+ to NAD^+) (SpADH2 WT; cofactor kinetics): 3.81×10^-5
fold higher activity than WT ([1]; substrate syringyl alcohol): 7 fold
activity ([1]; substrate syringyl alcohol (Fig. 5)): 70 U/g
fold increase in activity vs WT (SpADH2 variant H43L [2]): 2 fold
fold increase in activity vs WT (SpADH2 variant A290I): 10 fold
kcat (SpADH2 variant H43L [3]; [8]): 2.5 ± 0.9 min^− 1
Cofactor specificity ratio (catalytic efficiency of p-BANA^+ to NAD^+) (SpADH2 variant H43L [3]; substrate kinetics): 9.30×10^-4
Relative specificity (CSR ratio of variant to WT) (SpADH2 variant H43L [3]; substrate kinetics): 61.2
fold increase in kcat vs WT (SpADH2 variant H43L [3]; [9]): 2 fold
kcat [4, 8]: 6.8 ± 1.6 min^− 1
Cofactor specificity ratio (catalytic efficiency of p-BANA^+ to NAD^+) ([4]; substrate kinetics): 0.1026
fold increase in kcat vs WT [4, 9]: 6 fold
reduce in Km value vs WT [4, 9]: 30%
Relative specificity (CSR ratio of variant to WT) ([4]; substrate kinetics, in text as fold improvement in CSR): 6750
catalytic activity of SpADH2 with the NCB as cofactor (SpADH2): 1.62 U/g
kcat (SpADH2 variant H43L [5]; [6]): 5.1 ± 2.0 min^− 1
Km (SpADH2 variant H43L [5]; cofactor (= label) varied, 1a fixed at 5 mM, pH 7.5, 30°C): 28 ± 13 mM
Ki (SpADH2 variant H43L [5]; [7]): 5.4 ± 2.5 mM
Cofactor specificity ratio (catalytic efficiency of p-BANA^+ to NAD^+) (SpADH2 variant H43L [5]; cofactor kinetics): 3.08×10^-4
Relative specificity (CSR ratio of variant to WT) (SpADH2 variant H43L [5]; cofactor kinetics): 8.08
